Experiments:
Human Factor XIIa = target: T1, Human Factor XIIa (Homo sapiens, UniProt P00748); assay: Determination of Factor XIIa inhibitory activity in vitro (fluorogenic substrate H-DPro-Phe-Arg-AFC); assay type: biochemical; settings: Human Factor XIIa (Enzyme Research Laboratories), 25° C., read-out: Human FXIIa IC50
T1 construct: purchased Enzyme Research Laboratories
T1 sequence (P00748 373-615 limits assumed): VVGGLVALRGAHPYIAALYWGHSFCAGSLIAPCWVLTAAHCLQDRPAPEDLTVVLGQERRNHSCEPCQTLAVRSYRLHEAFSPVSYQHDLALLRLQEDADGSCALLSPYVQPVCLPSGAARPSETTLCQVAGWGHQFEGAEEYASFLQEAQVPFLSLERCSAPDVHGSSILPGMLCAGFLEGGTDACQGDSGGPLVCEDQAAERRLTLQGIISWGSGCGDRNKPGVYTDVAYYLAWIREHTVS
T1 sequence (P00748 20-372 partner limits assumed): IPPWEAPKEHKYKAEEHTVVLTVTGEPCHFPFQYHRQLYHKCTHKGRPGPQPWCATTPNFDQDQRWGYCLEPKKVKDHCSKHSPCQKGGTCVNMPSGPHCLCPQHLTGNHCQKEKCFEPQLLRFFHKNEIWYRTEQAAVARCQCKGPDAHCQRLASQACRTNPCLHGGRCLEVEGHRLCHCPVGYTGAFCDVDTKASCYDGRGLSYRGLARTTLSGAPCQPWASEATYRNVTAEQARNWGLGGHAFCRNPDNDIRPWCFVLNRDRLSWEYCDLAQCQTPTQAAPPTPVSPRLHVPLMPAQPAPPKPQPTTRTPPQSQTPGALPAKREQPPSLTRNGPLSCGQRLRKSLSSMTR
Summary of the method: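 In vitro inhibition of human Factor XIIa (sourced from Enzyme Research Laboratories) was measured by incubating the enzyme at 25° C. with the fluorogenic substrate H-DPro-Phe-Arg-AFC across a range of test compound concentrations. The initial reaction rate, taken as residual enzyme activity, was followed by the […], and IC50 values were calculated.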

Human FXIa = target: T2, Human FXIa (Homo sapiens, UniProt P03951); assay: Determination of FXIa inhibitory activity in vitro (fluorogenic substrate Z-Gly-Pro-Arg-AFC); assay type: biochemical; settings: Selectivity, Human FXIa (Enzyme Research Laboratories), 25° C.
T2 construct: purchased Enzyme Research Laboratories
T2 sequence (P03951 388-625 limits assumed): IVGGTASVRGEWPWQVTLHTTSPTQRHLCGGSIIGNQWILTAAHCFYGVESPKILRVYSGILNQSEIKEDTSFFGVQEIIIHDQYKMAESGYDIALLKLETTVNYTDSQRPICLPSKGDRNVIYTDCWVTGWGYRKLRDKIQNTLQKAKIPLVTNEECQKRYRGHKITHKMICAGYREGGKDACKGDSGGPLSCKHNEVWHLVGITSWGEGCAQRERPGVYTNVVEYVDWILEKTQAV
T2 sequence (P03951 19-387 partner limits assumed): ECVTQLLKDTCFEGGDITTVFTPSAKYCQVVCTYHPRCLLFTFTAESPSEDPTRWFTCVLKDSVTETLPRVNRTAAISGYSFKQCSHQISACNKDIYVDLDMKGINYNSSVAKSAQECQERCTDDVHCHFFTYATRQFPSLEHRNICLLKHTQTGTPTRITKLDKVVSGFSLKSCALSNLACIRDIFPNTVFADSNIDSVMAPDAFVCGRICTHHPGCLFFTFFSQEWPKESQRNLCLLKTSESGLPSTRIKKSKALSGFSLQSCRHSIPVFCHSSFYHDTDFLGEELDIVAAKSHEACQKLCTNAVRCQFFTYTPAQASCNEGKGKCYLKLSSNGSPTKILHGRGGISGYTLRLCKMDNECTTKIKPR

Row | SMILES | IC50 (Human Factor XIIa) | IC50 (Human FXIa)
1 | CN1CCC(CNc2nccnc2C(=O)Nc2ccc3nccnc3c2)CC1 [Example 33.08] | 10 to 40 µM | > 40 µM
2 | COc1ccc(-n2cc(C(=O)O)nn2)c(CNC(=O)c2nccnc2NCC2CCN(C)CC2)c1F [Example 33.09, 1-(3-Fluoro-4-methoxy-2-{[(3-{[(1-methylpiperidin-4-yl)methyl]amino}pyrazin-2-yl)formamido]methyl}phenyl)-1,2,3-triazole-4-carboxylic acid] | 10 to 40 µM | 33.5 µM
3 | Cc1nc2ccc(NC(=O)c3nccnc3NCC3CCN(C)CC3)cc2o1 [Example 33.10] | 10 to 40 µM | 20 µM
4 | CN1CCC(CNc2nccnc2C(=O)Nc2cccc3c(N)nccc23)CC1 [Example 33.12, N-(1-aminoisoquinolin-5-yl)-3-(((1-methylpiperidin-4-yl)methyl)amino)pyrazine-2-carboxamide] | 1 to 3 µM | > 40 µM
5 | CN1CCC(CNc2nccnc2C(=O)N[C@@H]2CCc3c2ccnc3N)CC1 [Example 33.13] | 3 to 10 µM | 39.8 µM
6 | CN1CCC(CNc2nccnc2C(=O)Nc2cccc3[nH]cc(Cl)c23)CC1 [Example 33.15] | 10 to 40 µM | > 40 µM
7 | Cc1c(CNC(=O)c2nccnc2NCC2CCN(C)CC2)ccc2c(N)nccc12 [Example 33.18, N-((1-amino-5-methylisoquinolin-6-yl)methyl)-3-(((1-methylpiperidin-4-yl)methyl)amino)pyrazine-2-carboxamide] | 0.3 to 1 µM | > 40 µM
8 | COc1cc2c(N)nccc2cc1CNC(=O)c1nccnc1NCC1CCN(C)CC1 [Example 33.20] | 1 to 3 µM | 13.5 µM

Results, then the molecule that gave them:

Row | IC50 (Human Factor XIIa) | IC50 (Human FXIa) | SMILES
9 | 10 to 40 µM | > 40 µM | CN1CCC(CNc2nccnc2C(=O)Nc2ccc3c(N)nccc3c2)CC1 [Example 33.07]
10 | 10 to 40 µM | > 40 µM | CN1CCC(CNc2nccnc2C(=O)Nc2ccc(-c3n[nH]c(=O)[nH]3)cc2)CC1 [Example 33.11]
11 | 10 to 40 µM | > 40 µM | CN1CCC(CNc2nccnc2C(=O)Nc2cnc3[nH]cc(Cl)c3c2)CC1 [Example 33.14]
12 | 3 to 10 µM | > 40 µM | CN1CCC(CNc2nccnc2C(=O)NCc2ccc3ccnc(N)c3c2)CC1 [Example 33.16]
13 | 10 to 40 µM | > 40 µM | COc1ccc(-n2cncn2)c(CNC(=O)c2nccnc2NCC2CCN(C)CC2)c1F [Example 33.17]
14 | 10 to 40 µM | > 40 µM | CN1CCC(CNc2nccnc2C(=O)NCc2cc(F)c3c(N)nccc3c2)CC1 [Example 33.19]
15 | 3 to 10 µM | > 40 µM | CN1CCC(CNc2nccnc2C(=O)NCc2cc3c(N)nccc3s2)CC1 [Example 33.21]

From US20220298141A1, “ENZYME INHIBITORS” (KALVISTA PHARMACEUTICALS LIMITED, priority 2019, published 2022)
